Source: US8742110B2, “Spiroxazolidinone compounds” (Merck Sharp & Dohme Corp., priority 2010, dated 2014)
Structures can show the parent of a compound that is named as a salt.

Target: SSTR5 (Homo sapiens (Human), UniProt P35346)
Experiment: SSTR5 binding assay
Settings: CHO-K1 membranes expressing cloned human SSTR5
Outline: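 Competition binding on membranes from CHO-K1 cells stably expressing cloned human receptor, using radiolabeled somatostatin in 50 mM Tris-HCl pH 7.8 with EGTA, MgCl2 and protease inhibitors. Unlabeled compounds tested from 0.01 nM to 10,000 nM.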

SSTR5, sequence (P35346 whole entry): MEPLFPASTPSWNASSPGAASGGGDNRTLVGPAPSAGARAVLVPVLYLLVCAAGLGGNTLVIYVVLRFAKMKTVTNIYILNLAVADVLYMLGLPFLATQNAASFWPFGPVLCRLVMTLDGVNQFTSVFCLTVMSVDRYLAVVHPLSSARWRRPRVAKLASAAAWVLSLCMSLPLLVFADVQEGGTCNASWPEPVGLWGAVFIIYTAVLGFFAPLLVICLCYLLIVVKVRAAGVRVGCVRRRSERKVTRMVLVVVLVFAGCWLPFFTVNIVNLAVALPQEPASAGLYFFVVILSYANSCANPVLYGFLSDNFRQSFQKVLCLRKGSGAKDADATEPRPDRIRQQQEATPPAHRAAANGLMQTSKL

| IC50 [nM] | SMILES |
| --- | --- |
| 153 | Cc1nc(-c2ccccc2)c(CN2CCC3(CC2)CN(c2ccc(C(=O)O)cc2)C(=O)O3)s1 [Example 6-33, 4-{8-[(2-Methyl-4-phenyl-1,3-thiazol-5-yl)methyl]-2-oxo-1-oxa-3,8-diazaspiro[4.5]dec-3-yl}benzoic acid, TFA salt] |
| 86 | O=C(O)c1ccc(N2CC3(CCN(Cc4nc(-c5ccccc5)oc4-c4ccccc4)CC3)OC2=O)cc1 [Example 6-34, 4-{8-[(2,5-Diphenyl-1,3-oxazol-4-yl)methyl]-2-oxo-1-oxa-3,8-diazaspiro[4.5]dec-3-yl}benzoic acid, TFA salt] |
| 1.74 | CC(C)(C)c1nc(-c2cc(F)c(F)cc2F)c(CN2CCC3(CC2)CN(c2ccc(C(=O)O)cc2)C(=O)O3)s1 [Example 6-35, 4-(8-{[2-tert-Butyl-4-(2,4,5-trifluorophenyl)-1,3-thiazol-5-yl]methyl}-2-oxo-1-oxa-3,8-diazaspiro[4.5]dec-3-yl)benzoic acid, TFA salt] |
| 1200 | O=C(O)c1ccc(N2CC3(CCN(Cc4nc5ccccn5c4-c4cc(F)c(F)cc4F)CC3)OC2=O)cc1 [Example 6-36, 4-(2-Oxo-8-{[3-(2,4,5-trifluorophenyl)imidazo[1,2-a]pyridin-2-yl]methyl}-1-oxa-3,8-diazaspiro[4.5]dec-3-yl)benzoic acid, TFA salt] |
| 13.4 | O=C(O)c1ccc(N2CC3(CCN(Cc4c(-c5ccccc5)nc5ccccn45)CC3)OC2=O)cc1 [Example 6-37, 4-{2-Oxo-8-[(2-phenylimidazo[1,2-a]pyridin-3-yl)methyl]-1-oxa-3,8-diazaspiro[4.5]dec-3-yl}benzoic acid, TFA salt] |
| 1010 | Cc1nc2ccccn2c1CN1CCC2(CC1)CN(c1ccc(C(=O)O)cc1)C(=O)O2 [Example 6-38, 4-{8-[(2-Methylimidazo[1,2-a]pyridin-3-yl)methyl]-2-oxo-1-oxa-3,8-diazaspiro[4.5]dec-3-yl}benzoic acid, TFA salt] |
| 442 | Cc1cccn2c(-c3cc(F)c(F)cc3F)c(CN3CCC4(CC3)CN(c3ccc(C(=O)O)cc3)C(=O)O4)nc12 [Example 6-39, 4-(8-{[8-Methyl-3-(2,4,5-trifluorophenyl)imidazo[1,2-a]pyridin-2-yl]methyl}-2-oxo-1-oxa-3,8-diazaspiro[4.5]dec-3-yl)benzoic acid, TFA salt] |
